The target in this assay is T1, JsTPS3 (GST-JsTPS3) (Jasminum sambac, UniProt A0A8T9EC85).
T1 construct: gene TPS3; full-length CDS in pGEX-6p-1, N-terminal GST tag kept, E. coli Rosetta (DE3), ~98 kDa with tag
T1 sequence (A0A8T9EC85 1-540): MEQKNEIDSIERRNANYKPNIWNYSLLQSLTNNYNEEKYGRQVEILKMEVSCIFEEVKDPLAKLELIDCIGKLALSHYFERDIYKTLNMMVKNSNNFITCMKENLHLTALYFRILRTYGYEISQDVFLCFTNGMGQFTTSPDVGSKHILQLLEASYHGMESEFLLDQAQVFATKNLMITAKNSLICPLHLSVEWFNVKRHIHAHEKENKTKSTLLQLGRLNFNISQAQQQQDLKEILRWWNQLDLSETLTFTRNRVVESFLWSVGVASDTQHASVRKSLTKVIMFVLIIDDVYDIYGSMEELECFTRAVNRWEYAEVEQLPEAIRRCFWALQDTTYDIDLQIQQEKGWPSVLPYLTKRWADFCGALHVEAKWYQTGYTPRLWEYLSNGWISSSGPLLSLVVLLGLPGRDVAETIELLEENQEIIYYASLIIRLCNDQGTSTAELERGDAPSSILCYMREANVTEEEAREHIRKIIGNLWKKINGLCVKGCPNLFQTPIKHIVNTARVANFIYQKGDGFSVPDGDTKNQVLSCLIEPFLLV
The assay can be described thus: GC-Orbitrap MS detection of trans-beta-ocimene and beta-ocimene formed. Type of assay: biochemical. Conditions: 60 uM GPP; 30 mM HEPES pH 7.5, 5 mM DTT, 25 mM MgCl2; 30 °C 1 h, then 45 °C 15 min; 10 or 15 ug enzyme in 1 ml.

Each structure is given as a SMILES string.

As for `CC(C)=CCC/C(C)=C/COP(=O)(O)OP(=O)(O)O` [GPP, geranyl pyrophosphate], the “GC-Orbitrap MS detection of trans-beta-ocimene and beta-ocimene formed” value was “recombinant JsTPS3 protein exerts TPS activity by catalyzing GPP into trans-β-ocimene and β-ocimene”.

Source of the values: article PMC10372924, “The Jasmine (Jasminum sambac) Genome Provides Insight into the Biosynthesis of Flower Fragrances and Jasmonates” (Genomics, Proteomics & Bioinformatics, 2022).
